Measured values as given in article PMC3175016 (Journal of applied toxicology : JAT, 2011).
Read-outs that look alike come from different tables or passages of the source. Marks after values point to notes of the source that are not given here.

Tests used:
[1] = tested on: male Fischer 344 rats; experiment: Kidney weight 24 h after a single i.p. dose; type: in vivo; details: i.p. in corn oil, mean ± SE, N = 3–4
[2] = tested on: male Fischer 344 rats; experiment: Liver histology; type: in vivo; details: 24 h
[3] = tested on: male Fischer 344 rats; experiment: Clinical observation 24 h after dosing; type: in vivo, rat; details: 0.6 mmol/kg i.p., 24 h after dosing (sluggish movements and low body temperatures)
[4] = tested on: male Fischer 344 rats; experiment: Serum alanine aminotransferase; type: in vivo; details: 24 h
[5] = tested on: male Fischer 344 rats; experiment: Six-hour urine protein content after a single i.p. dose; type: in vivo; details: i.p. in corn oil, mean ± SE, N = 3–4
[6] = tested on: male Fischer 344 rats; experiment: Liver weight 24 h after a single i.p. dose; type: in vivo; details: i.p. in corn oil, mean ± SE, N = 3–4
[7] = tested on: male Fischer 344 rats; experiment: Urine volume after a single i.p. dose; type: in vivo; details: i.p. in corn oil, mean ± SE, N = 3–4
[8] = tested on: male Fischer 344 rats; experiment: Blood urea nitrogen; type: in vivo; details: for Blood urea nitrogen: i.p. in corn oil, 24 h, mean ± SE, N = 3–4
[9] = tested on: male Fischer 344 rats; experiment: Kidney histology; type: in vivo; details: all doses evaluated, i.p., 24 h, vs corn oil
[10] = tested on: male Fischer 344 rats; details: ref Patel et al., 2008, cited from earlier work
[11] = dose 0.2 (head mg/kg; text mmol/kg)
[12] = dose 0.4 (head mg/kg; text mmol/kg)
[13] = dose 0.6 (head mg/kg; text mmol/kg)
[14] = dose 1.0 (head mg/kg; text mmol/kg)

| Compound | Kidney weight [1, 11] | Kidney weight [1, 12] | Kidney weight [1, 13] | ALT elevation compared to corn oil controls ([4]; 0.6 mmol/kg i.p.) | Six-hour urine protein content [5, 11] | Six-hour urine protein content [5, 12] | Six-hour urine protein content [5, 13] | Liver weight [6, 11] | Liver weight [6, 12] | Liver weight [6, 13] | Twenty-four-hour urine volume [7, 11] | Twenty-four-hour urine volume [7, 12] | Twenty-four-hour urine volume [7, 13] | Blood urea nitrogen [8, 11] | Blood urea nitrogen [8, 12] | Blood urea nitrogen [8, 13] | Kidney morphology [9] | further results |
| --- | --- | --- | --- | --- | --- | --- | --- | --- | --- | --- | --- | --- | --- | --- | --- | --- | --- | --- |
| O=C(O)CSC(=O)Nc1cc(Cl)cc(Cl)c1 [DCTA, [[[(3,5-dichlorophenyl)amino]carbonyl]thio]acetic acid] | 0.40 ± 0.01^b g/ 100% BW | 0.43 ± 0.01 *,^b,^c g/ 100% BW | 0.45 ± 0.01 *,^c g/ 100% BW | about 2 fold | 2.9 ± 0.9^b mg | 2.5 ± 0.4^b mg | 2.5 ± 1.1^b mg | 3.58 ± 0.21^b g/100% BW | 3.62 ± 0.05^b g/100% BW | 3.46 ± 0.17^b g/100% BW | 12.5 ± 3.8^b ml | 13.1 ± 2.4^b ml | 9.5 ± 5.0^b ml | 21.0 ± 1.0^b mg/dl | 62.2 ± 11.2*,^c mg/dl | 67.8 ± 17.9*,^c mg/dl | did not exhibit obvious changes in kidney morphology | Liver morphology ([2]; 0.6 mmol/kg i.p.): nuclear condensation was apparent in some hepatocytes; Liver morphology ([2]; 0.2 and 0.4 mmol/kg i.p.): did not produce any significant changes; Clinical appearance [3]: appeared to be moribund; Change in serum ALT levels ([4]; 0.2 and 0.4 mmol/kg i.p.): no changes were noted; Increase in serum BUN concentrations ([8]; 0.4 and 0.6 mmol/kg, compared to corn oil and the 0.2 mmol/kg dose): about 3 fold |
| O=C1CSC(=O)N1c1cc(Cl)cc(Cl)c1 [DCPT, 3-(3,5-dichlorophenyl)-2,4-thiazolidinedione] | – | – | – | – | – | – | – | – | – | – | – | – | – | – | – | – | – | ALT values ([10]; 0.2 mmol/kg): 26.7 ± 6.6 SF units/ml; ALT values ([10]; 0.4 mmol/kg): 231.5 ± 50.0 SF units/ml; ALT values ([10]; 0.6 mmol/kg): 281.7 ± 103.0 SF units/ml; ALT values ([10]; 1.0 mmol/kg): 506.9 ± 99.4 SF units/ml |
| O=C1CSC(=O)N1c1ccccc1 [PTZD, 3-phenyl-2,4-thiazolidinedione] | 0.36 ± 0.01^d g/ 100% BW | 0.40 ± 0.00*,^e g/ 100% BW | 0.41 ± 0.01*,^e g/ 100% BW | ~26 fold | 2.1 ± 0.5^d mg | 2.1 ± 0.2^d mg | 3.4 ± 0.9^d mg | 3.69 ± 0.25^e g/100% BW | 3.68 ± 0.18^e g/100% BW | 4.08 ± 0.08^e g/100% BW | 6.1 ± 1.7^d ml | 11.5 ± 3.2^d ml | 12.5 ± 2.4^d ml | 24.8 ± 1.9^d mg/dl | 24.1 ± 0.9^d mg/dl | 28.6 ± 2.0*,^d mg/dl | dilation of distal tubules and collecting tubules | Kidney weight [1, 14]: 0.47 ± 0.01 *,^f g/ 100% BW; Liver morphology ([2]; 0.2 mmol/kg i.p.): did not show any signs of hepatic damage; Liver morphology ([2]; 0.4 mmol/kg i.p.): some damage with granular and irregularly stained cytoplasm and indistinct nuclei; Liver morphology ([2]; 1.0 mmol/kg i.p.): larger necrotic lesions were present and an acute inflammatory response occurred; Change in serum ALT levels ([4]; 0.2 mmol/kg i.p., vs corn oil): did not produce a significant change; ALT elevation compared to corn oil controls ([4]; 0.4 mmol/kg i.p.): approximately 7 fold; serum alanine aminotransferase (ALT) activity ([4]; 1.0 mmol/kg i.p. in corn oil, corn oil controls 36.0 ± 11.3): 1196.2 ± 133.6 Sigma-Frankel units/ml; ALT elevation compared to corn oil controls ([4]; 1.0 mmol/kg i.p.): ~33 fold; Six-hour urine protein content [5, 14]: 2.3 ± 0.6^d mg; Liver weight [6, 14]: 4.24 ± 0.06*,^e g/100% BW; Twenty-four-hour urine volume [7, 14]: 22.6 ± 0.4*,^e ml; Blood urea nitrogen [8, 14]: 31.3 ± 2.4*,^d mg/dl |
